In paper PMC9104152, “Phosphoproteomics Unravel HBV Triggered Rewiring of Host Phosphosignaling Events” (International Journal of Molecular Sciences, 2022):

Key:
[1] = test system: HepG2-NTCP cells; assay: Cytotoxicity assay (Cell-titer-GLO Luminescent Cell Viability Assay); type: cell-based, human
Protocol: (§1) The IC50 of kinase inhibitors was determined using the Cell-titer-GLO Luminescent Cell Viability Assay kit (Promega, Madison, WI, USA) according to the recommendations from the manufacturer. Briefly, 10,000 HepG2-NTCP cells were seeded into a 96-well plate before treatment with various kinase inhibitor concentrations. Cell viability was assayed at 24 h post-treatment.

[2] = test system: HBV infection in HepG2-NTCP cells; assay: HBV pgRNA level by real-time qPCR in kinase inhibitor treated HBV infected HepG2-NTCP; type: cell-based, Hepatitis B virus; conditions: for HBV pgRNA Fold change (Treated/DMSO) / effect on pgRNA level (in words): 1 µM; for effect on pgRNA level (in words): both four dpi and seven dpi
Source text: (§2) HBV were generated from a stable transfected hepablastoma cell line (Hep38.7) that expresses HBV as described previously. Briefly, Hep38.7 (tet-off) cells were induced to produce HBV particles through tetracycline withdrawal. Twelve days after tetracycline removal, culture media containing HBV were harvested and filtered through a 0.22 µm polyethersulfone (PES) membrane filter (Corning, New York, NY, USA). The virus supernatant was then concentrated using a heparin column and eluted with high salt, followed by overnight dialysis in phosphate-buffered saline (PBS). Real-time quantitative PCR was used to quantify the genome copy number of the HBV DNA. For infection, HepG2-NTCP cells at 70% confluence 1-day post-seeding were first treated with synchronisation medium consisting of complete medium with 3% DMSO and 500 µM L-Mimosin for 24 h. the cells were then incubated for 30 min with complete medium containing 800 µM of EGTA at 37 °C in a humidified 5% CO2 incubator. After the removal of EGTA-containing medium, the cells were infected with HBV at a multiplicity of infection (MOI) of 3000 in the presence of 4% PEG 8000 and 2.5% DMSO in DMEM/F12 medium supplemented with 2% FBS for 24 h. For the mock infection, cells were incubated for 24-hour in 4% PEG 8000, 2.5% DMSO in DMEM/F12 medium supplemented with 2% FBS. Upon virus removal followed by washing with PBS four times, HBV-infected cells were cultured in post-infection medium consisting of DMEM/F12 medium with 2% FBS and 1% DMSO. The post-infection medium was replaced at four days post-infection (dpi) and infected cells were harvested at day seven dpi. For phosphoproteome analysis, five biological replicates each of mock and HBV-infected HepG2-NTCP were used.
(§3) Total RNA was extracted using the RNeasy Mini Kit (Qiagen, Hilden, Germany) and digested with DNase according to the manufacturer’s protocol. For cDNA synthesis, 250–400 ng of total RNA was reverse transcribed with the iScript cDNA Synthesis Kit (Bio-Rad, Hercules, CA, USA) following the manufacturer’s protocol. cDNA was adjusted to 5 ng/µL using nuclease-free water and 2 μL of cDNA per reaction was used for qPCR analysis. Total DNA was extracted from the cells using the DNeasy Blood and Tissue Kit (Qiagen, Hilden, Germany) according to the manufacturer’s protocol.
(§4) To determine pgRNA level after HBV infection, HBV pgRNA was quantified by real-time qPCR using two HBV-specific primers: pgRNA-Forward, 5′-[…]-3′, and pgRNA-Reverse, 5′-[…]-3′ [49]. The housekeeping gene, GAPDH, was amplified using GAPDH forward primer 5′-[…]-3′ and GAPDH reverse primer 5′-[…]-3′. The relative fold change of pgRNA between conditions was determined using the ΔΔct method. Real-time qPCR was performed with iTaq Universal SYBR Green Supermix (Bio-Rad, Hercules, CA, USA). To determine the copy number of intracellular cccDNA, a probe-based qPCR approach was used. cccDNA was amplified using cccDNA forward primer 5′-[…]-3′ and cccDNA reverse primer 5′-[…]-3′. The Taqman probe 56, FAM/[…]/ZEN/[…]/3IABkFQ was used. The cccDNA copy number was determined using a standard curve approach with a 10× serial-diluted cccDNA template, starting from 10ng (Standard rang 1 fg to 1 ng). The reaction was carried out using the Luna Univeral Probe qPCR mix (NEB, Ipswich, MA, USA). To determine the level of HBeAg secretion, the HBeAg CLIA kit (Autobio diagnostic, Zhengzhou, China) was used. This assay was performed on 50 µL of medium harvested at four or seven dpi. All experiments were performed in triplicates and repeated twice for two additional biological replicates. The p-value was calculated using Student’s t-test (two-tailed, * p-value < 0.05, ** p-value < 0.01).
HBV infection on HepG2-NTCP was carried out as described earlier. At one dpi, the kinase inhibitors (Table 1) were added to the post-infection medium after the washing and removal of viruses containing infection medium. […]

[3] = test system: HBV infection in HepG2-NTCP cells; assay: HBeAg secretion (HBeAg CLIA kit) in kinase inhibitor treated HBV infected HepG2-NTCP; type: cell-based; conditions: 1 µM
Source text: as §2
as §4, with “The reaction was carried out using the Luna Univeral Probe qPCR mix (NEB, Ipswich, MA, USA). To determine the level of HBeAg secretion, the HBeAg CLIA kit (Autobio diagnostic, Zhengzhou, China) was used. This assay was performed on 50 µL of medium harvested at four or seven dpi. All experiments were performed in triplicates and repeated twice for two additional biological replicates.” left out, “0.01). […]” for “0.01).”

[4] = test system: HBV infection in HepG2-NTCP cells; assay: Intracellular cccDNA by probe-based qPCR in kinase inhibitor treated HBV infected HepG2-NTCP; type: cell-based; conditions: 1 µM
Source text: as §2
as §3, with “Total DNA was extracted from the cells using the DNeasy Blood and Tissue Kit (Qiagen, Hilden, Germany) according to the manufacturer’s protocol.” left out
To determine pgRNA level after HBV infection, HBV pgRNA was quantified by real-time qPCR using two HBV-specific primers: pgRNA-Forward, 5′-[…]-3′, and pgRNA-Reverse, 5′-[…]-3′ [49]. […] The relative fold change of pgRNA between conditions was determined using the ΔΔct method. […] The cccDNA copy number was determined using a standard curve approach with a 10× serial-diluted cccDNA template, starting from 10ng (Standard rang 1 fg to 1 ng). […] The p-value was calculated using Student’s t-test (two-tailed, * p-value < 0.05, ** p-value < 0.01). […]

[5] = Cytotoxicity assay (Cell-titer-GLO Luminescent Cell Viability Assay); type: cell-based, human; conditions: human, HepG2-NTCP cells; HepG2-NTCP, cell viability 24 h post-treatment
Protocol: as §1

[6] = target: CLKs; conditions: target CLKs; reported value, no reference given; cited from earlier work
[7] = target: CDK5; conditions: target CDK5; reported value, no reference given; cited from earlier work
[8] = target: CDK2; conditions: target CDK2; reported value, no reference given; cited from earlier work
[9] = target: CDK1; conditions: target CDK1; reported value, no reference given; cited from earlier work

| Structure (SMILES) | IC50 [1] [µM] | HBeAg Titer Fold change (Treated/DMSO) ([3]; 4dpi) | HBeAg Titer Fold change (Treated/DMSO) ([3]; 7dpi) | HBV pgRNA Fold change (Treated/DMSO) ([2]; 4dpi) | HBV pgRNA Fold change (Treated/DMSO) ([2]; 7dpi) | effect on pgRNA level (in words) [2] | Intracellular cccDNA Fold change (Treated/DMSO) ([4]; 4dpi) | Intracellular cccDNA Fold change (Treated/DMSO) ([4]; 7dpi) | also measured |
| --- | --- | --- | --- | --- | --- | --- | --- | --- | --- |
| CN(C)c1nc2c(Br)c(Br)c(Br)c(Br)c2[nH]1 [DMAT] | > 500 | – | – | – | – | – | – | – | effect on pgRNA transcription (in words) ([2]; 10 µM, both four and seven dpi): reduction of pgRNA transcription |
| Cn1cc(-c2ccc3occ(-c4ccccc4-c4ccccc4)c3n2)cn1 [MU140] | – | 0.904 | 0.993 | 1.014 | 1.114 | no such reduction | 0.894 | 0.930 | – |
| Cn1cc(-c2ccc3occ(-c4cccc(-c5ccncc5)c4)c3n2)cn1 [MU1210] | – | 0.415 | 0.105 | 0.406 | 0.709 | reduction in the pgRNA level | 0.678 | 0.479 | IC50 at 24 h [5]: 16.7 µM; Ki [6]: 0.023 µM |
| Nc1cc(Nc2ccc(S(N)(=O)=O)cc2)ncn1 [PNU112455A11] | > 500 | – | – | – | – | – | – | – | Ki [7]: 3.6 µM; Ki [8]: 3.2 µM |
| O=C1NC(=NCc2cccs2)S/C1=C\c1ccc2ncccc2c1 [RO-3306] | – | – | – | – | – | – | – | – | Ki [9]: 0.035 µM |
